From patent US12173317B2, “Use of histone modifiers to reprogram effector T cells” (Board of Regents, The University of Texas System, priority 2018, dated 2024)
Entries after “also recorded” stand apart in the source; their conditions may differ.

What was measured:
[1] = system: tumor infiltrating lymphocytes (TILs)
Method: The effect of IL-21 and Panobinostat in the clinical-relevant TIL expansion was assessed.
To examine the possible de-differentiating effect of an HDAC inhibitor/IL-21 combination, TILs were untreated or pretreated with SAHA for 24 hours, then subjected to regular REP (irradiated PBMC and LCL cells, anti-CD3 and IL-2), or REP with SAHA/IL-21.
The TILs were cultured from patient melanoma tumors. […] For studies with SAHA, SAHA was used at 1-5 μM.
TILs were cultured in 50% AIM-V, 50% TIL complete medium which contains RPMI1640, 10% human AB serum, 10 mM HEPES, and 2-Mercaptoethanol. […] IL-21 (30 ng/ml) or HDACi SAHA (1-5 μM) or Panobinostat (1-3 nM) was added on day 0, 4 and 7 if included in the expansion. After 14 days, expanded cells were subjected to further analyses.

[2] = system: histone H3 acetylation (AcH3); test: Western blot of H3 acetylation (AcH3) level; assay type: cell-based, human
Source text: (§1) Western Blot analysis: Equal number of cells was lysed in 2×SDS loading buffer and loaded for immunoblot analysis with different antibodies (Cell Signaling). Anti-β-actin-HRP was from Santa Cruz Biotech. β-actin was used as the loading control for all immunoblot experiments. The results were quantified using ImageJ and normalized to the density of actin in the corresponding samples.

[3] = system: M27-specific CTLs; test: CD28 expression in M27-specific CTLs generated with IL-21; assay type: cell-based, human
Source text: (§2) IL-21 upregulates CD28 expression on activated human naïve CD8^+ T cells: CD28 is a pivotal costimulatory molecule for naïve T cell activation and memory T cell function. […] To investigate the molecular mechanisms of IL-21-induced CD28 expression, melanoma antigen recognized by T cells (MART1, M27)-specific CTLs were generated in the absence or presence of IL-21 as previously described (Li et al., 2005). […] To further corroborate the findings, sort-purified naïve human CD8^+ T cells (CD45RA^+CCR7^+) from healthy donors were activated with anti-CD3/CD28 beads in the absence or presence of IL-21 and surface CD28 expression was detected by flow cytometry.
(§3) Flow Cytometry: Cells were stained with antibodies against CD8, CD28, CD62L or CD132. All FACS data were acquired via an LSR II flow cytometer and analyzed via FlowJo software (Tree Star, Inc.).
Quantitative real-dime PCR: Total RNA was prepared using Qiagen RNA purification kit. cDNA. was made using Superscript reverse transcriptase and oligo(dT) primers (Life Technology), and gene expression was detected with a Bio-Rad iCycler Optical System using iQ SYBR green real-time PCR kit (Bio-Rad Laboratories, Inc.). The data were normalized to the reference gene RPL13A. RPL13A primer was purchased from Qiagen. Other primer pairs used were: CD28 forward: […] (SEQ ID NO:2), reverse: […] (SEQ ID NO: 3); CD62L forward: […] […]

[4] = system: STAT5; test: Western blot of pSTAT5; assay type: cell-based, human; settings: naïve CD8+ T cells, anti-CD3/CD28 beads, 30 minutes after activation
Method: (§4) Polyclonal stimulation of CD8^+ T cells: Naïve CD8^+ T cells (CD8^+CD45RA^+CCR7^+) were flow cytometry-sorted or were isolated using EasySep™ Human Naïve CD8^+ T Cell Enrichment Kit (StemCell). In some experiments, total CD8^+ T cells were negatively selected using EasySep™ Human CD8^+ T Cell Enrichment Kit (StemCell). The purity of the naïve or total CD8^+ T cells was greater than 95% as determined by flow cytometry. CD8^+ T cells were cultured in RPMI 1640 with 10% fetal bovine serum and penicillin/streptomycin. CD8^+ T cells were activated using Dynabeads® Human T-Activator CD3/CD28 for T-Cell Expansion and Activation (Life Technologies) at a bead:cell ratio of 1:1 or together with 30 ng/mL human IL-21 (Peprotech). At the indicated time points, T cells were harvested and beads were removed using a magnet before downstream analysis.
as §1

[5] = system: CD28 promoter; test: Chromatin immunoprecipitation (ChIP) on the CD28 promoter; assay type: cell-based, human
Method: Chromatin immunoprecipitation (ChIP): ChIP was performed using a ChIP Assay Kit according to the manufacturer's instructions (Millipore). Quantitative real-time PCR was performed with primers: CD28 promoter proximal STAT sites: forward […] (SEQ ID NO:10), reverse […] (SEQ ID NO: 11); distal STAT sites: forward […] (SEQ ID NO: 12), reverse […] (SEQ ID NO: 13); Rabbit IgG was used as a negative control.

[6] = system: MART1 (M27)-specific effector CD8+ T cells; test: CD28 level on M27-specific effector CD8+ T cells by flow cytometry; assay type: cell-based, human; settings: activation with M27-pulsed mature dendritic cells, 4 days
Method: The present studies were performed to develop a method to reprogram or de-differentiate effector T cells that express CD45RO to central memory T cells that express CD62L and CD28 (FIG. 8). The effect of IL-21 and histone deacetylase inhibitor (HDACi) treatment on central memory markers CD28 and CD62L was evaluated. MART1 (M27)-specific effector CD8^+ T cells were untreated or pretreated with SAHA for 24 hours, followed by activation with M27-pulsed mature dendritic cells in the presence or absence of SAHA/IL-21 for 4 days.
as §3
To assess the effect of SAHA/IL-21 on CD28 expression in the context of a more physiologic, antigen-specific (in contrast to non-specific polyclonal) stimulation, this effect was evaluated on MART1 (M27)-specific effector/effector memory cells generated using peptide-pulsed autologous dendritic cells. MART1 (M27)-specific effector CD8^+ T cells (CD45RO^+, CD28-neg, CD62L-neg) were generated following iterative cycles of in vitro stimulation, tetramer-guided sorting of M27-specific CTL and expansion to uniformity (>95% MART-1-specific effector CTL). First, the effect of SAHA was evaluated on pSTAT3 binding to the CD28 promoter region. […]

[7] = system: tumor antigen-specific CTL cells; test: Intracellular staining of IFN-γ and granzyme B; assay type: cell-based, human; settings: restimulated with tumor cells
Method: Intracellular Staining: The cells were restimulated with tumor cells for 16 hours and stained with antibody against CD8, followed by fixation and staining with antibodies against IFN-γ and granzyme B in permeabilization buffer. The cells were washed and resuspended in FACS buffer before analysis.

[8] = system: STAT3; test: Western blot of IL-21-induced pSTAT3; assay type: cell-based, human
Method: as §4, §1

[9] = system: CD132 (γC); test: CD132 surface level on expanded CTLs by flow cytometry; assay type: cell-based, human; settings: CD8+ gate
Source text: (§5) The expanded TILs/CTLs were also stained with antibodies against CD8 and CD132 and analyzed using the CD8^+ gate. […] In addition, the expanded CTLs were labeled with carboxyfluorescein succinimidyl ester (CFSE) and cultured with IL-2 or IL-15 for 2 days to check cell division. […] (FIG. 4B).
as §3

[10] = system: human CD8+ T cells; test: CD28 expression in polyclonally activated human CD8+ T cells; assay type: cell-based
Source text: as §2, §4, §3
Quantitative real-dime PCR: Total RNA was prepared using Qiagen RNA purification kit. cDNA. was made using Superscript reverse transcriptase and oligo(dT) primers (Life Technology), and gene expression was detected with a Bio-Rad iCycler Optical System using iQ SYBR green real-time PCR kit (Bio-Rad Laboratories, Inc.). The data were normalized to the reference gene RPL13A. RPL13A primer was purchased from Qiagen. Other primer pairs used were: CD28 forward: […] (SEQ ID NO:2), reverse: […] (SEQ ID NO: 3); CD62L forward: […] (SEQ ID NO: 4), reverse: […] (SEQ ID NO: 5); Additional primers included lymphoid enhancer-binding factor 1 (LEFI) forward: […] (SEQ ID NO: 6), reverse: […] (SEQ ID NO: 7); transcription factor 1 (TCF1) forward: […] (SEQ ID NO: 8), reverse: CCTCGACCGCCTCTTCTTC (SEQ ID NO: 9).
Human shRNA Knockdown: Total CD8^+ T cells were isolated and transfected with 5 μg negative control, STAT1 shRNA, or STAT3 shRNA (Dharmacon) using Amaxa human T cell Nucleofector Kit according to the manufacturer's instructions (Lonza). Transfected cells were rested for 1-2 days and live GFP^+ cells were sort-purified for immunoblot analysis or were stimulated for 7 days as previously described before further analysis.

[11] = system: tumor antigen-specific CTL lines; test: REP and mini-REP expansion fold of CTLs; assay type: cell-based, human; settings: 2 weeks
Method: The TILs were cultured from patient melanoma tumors. […] After 14 days, cells were used for further analyses. For studies with SAHA (FIG. 2), SAHA was used at […].
Mini-REP was started scaling down from T25 flasks to 24-well plates accordingly. IL-21 and Panobinostat dose remained unchanged.
To examine the clinical applicability of Panobinostat (Pano) in the setting of antigen-specific ACT, MART1 (M27)-specific effector/effector memory cells generated via the ETC approach were used and expanded in vitro by REP, as previously described (Yee, 2014). Cells were expanded with four different protocols (regular, adding IL-21 alone, adding Pano alone, or IL-21+Pano). […] It was posited that Panobinostat, like SAHA, enabled STAT3 and other transcription factors/cofactors to access binding sites and induce CD28 and CD62L expression.
The TILs were cultured from patient melanoma tumors. […] After 14 days, cells were used for further analyses.

[12] = system: STAT1; test: Western blot of pSTAT1; assay type: cell-based, human; settings: naïve CD8+ T cells, anti-CD3/CD28 beads, 30 minutes after activation
Method: as §4, §1

[13] = system: target tumor cells; test: Chromium release assay (CRA); assay type: cell-based; settings: effector:tumor 20:1, 4 hours, compared with regular expansion
Method: (§6) Chromium Release Assay (CRA): Tumor cells were labeled with Cr51 before being incubated with antigen-specific CTLs at effector:tumor of 20:1 for 4 hours. The Cr51 amount in the supernatants was measured and the killing efficiency was calculated as % killing=100%×(sample average−average of negative control)/(average of positive control average of negative control).
as §6, with “control−average” for “control average”

[14] = system: expanded CTLs; test: CFSE proliferation of expanded CTLs with IL-2 or IL-15; assay type: cell-based, human; settings: 2 days
Method: as §5
Central memory function associated with the IL-21/Pano-induced CD28^+CD62L^+ population was evaluated by the ability of these central memory-like T cells to undergo homeostatic proliferation in response to IL-7 and IL-15. ETC cells expanded with four different protocols (regular, adding IL-21 alone, adding Pano alone, or IL-21+Pano) were labeled with CFSE and cultured with IL-2, IL-7 or IL-15 for 2 days. […] Adding Panobinostat alone to REP increased cell proliferation in response to IL-15 but not to IL-2. […] Since IL-2 and IL-15 share CD132 (γC) and CD122 receptor subunits, CD132 and CD122 levels were assessed on the surface of these cells.

Molecule: Cc1[nH]c2ccccc2c1CCNCc1ccc(/C=C/C(=O)NO)cc1 [Panobinostat]
- cytotoxicity ([1]; screen of HDACi): minimal cytotoxicity
- Panobinostat dose that increased AcH3 level [2]: ≥ 0.5 nM

Molecule: IL-21: Human Interleukin 21, protein cytokine of 162 amino acids (SEQ ID NO:1)
- CD28 mRNA level [3]: greatly augmented
- CD28 expression ([3]; compared with cells generated in the absence of IL-21): significantly higher
- STAT5 phosphorylation [4]: weak
- enrichment of STAT3 at proximal and distal CD28 promoter regions ([5]; anti-CD3/CD28 and IL-21 relative to anti-CD3/CD28 alone): 2-3 fold
- CD28 expression [6]: slightly increased; also recorded: not observed
- IFNγ and granzyme B expression [7]: augmented
- IL-21-induced STAT3 phosphorylation levels, naïve compared with effector CD8+ T-cells [8]: comparable
- STAT3 phosphorylation ([8]; effector CD8+ T cells): induced STAT3 phosphorylation
- STAT3 phosphorylation ([8]; naïve CD8+ T cells, anti-CD3/CD28 beads, 30 minutes after activation): strong
- CD132 (γ chain) surface expression [9]: upregulate; also recorded: significantly increased
- IL-21-mediated enhancement of CD28 expression ([10]; CD8+ T cells from Job's syndrome patients): completely abrogated
- IL-21-induced CD28 protein and mRNA upregulation diminished ([10]; STAT1 shRNA-transfected CD8+ T cells): not
- IL-21-induced CD28 protein and mRNA upregulation ([10]; STAT3 shRNA-transfected CD8+ T cells): diminished
- CD28 expression ([10]; activated TEMRA CD8+ T cells): minimally upregulated
- CD28 mRNA level ([10]; naïve CD8+ T cells, anti-CD3/CD28): greatly augmented
- CD28 surface level expression ([10]; naïve CD8+ T cells, anti-CD3/CD28 beads): significantly increased; also recorded: upregulates
- expression of CD28 at protein and mRNA levels ([10]; total CD8+ T cells from healthy donors): increased
- yield of cell expansion ([11]; mini-REP): dramatically increased
- expansion yield / expansion fold ([11]; regular REP): similar
- STAT1 phosphorylation [12]: strong
- tumor cell killing [13]: enhanced
- proliferation in response to IL-2 [14]: enhanced
- proliferation in response to IL-15 [14]: enhanced

Molecule: O=C(CCCCCCC(=O)Nc1ccccc1)NO [SAHA, Suberoylanilide Hydroxamic Acid]
- AcH3 level on the CD28 promoter ([5]; M27-specific effector CD8+ T cells, SAHA 24 hours): significantly increased
- IL-21-induced STAT3 (pSTAT3) binding to the CD28 promoter ([5]; SAHA 24 hours, then IL-21 30 minutes): allowing IL-21-induced STAT3 to bind to the same DNA region; also recorded: increased; also recorded: allows IL-21-induced pSTAT3 to access the CD28 promoter
- CD28 expression [6]: upregulated
- cell death in REP culture [1]: caused dramatic cell death
- viable cells at the end of REP [1]: few viable cells
- AcH3 level by western blot ([2]; H3 and β-actin as loading controls): dose-dependent increase; also recorded: increases H3 acetylation in a dose-dependent manner
- SAHA concentration that augmented AcH3 level ([2]; effector CD8+ T cells): ≥ 1 µM
- SAHA concentration that could augment AcH3 levels ([2]; titration study, effector CD8+ T cells): ≥ 1 µM
